Test results reported in patent EP0103381B1, “Substituted anthra(1,9-cd)pyrazol-6(2H)-ones” (WARNER-LAMBERT COMPANY, priority 1982, dated 1984).
Read-outs that look alike come from different tables or passages of the source.

What was measured:
Escherichia coli = assay: agar plate paper-disc inhibition zone screening; format: cell-based; conditions: read-out: Inhibition Zone Diameter mm (Dose mg/ml) E. Coli; for zone of inhibition at 1000 µg/mL: Dose 1.0 mg/ml; for zone of inhibition at 500 µg/mL: Dose 0.5 mg/ml
Method in brief: (§1)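 Inoculum: saline suspension, 20-35% transmittancy, in molten agar. Discs 12.7 mm, compound 3,000/1,000/500/100/10 mcg/ml, solvent <10%. 37°C, 18-20 h; zone diameter in mm.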

Streptococcus faecalis = assay: agar plate paper-disc inhibition zone screening; format: cell-based; conditions: Enterococcus faecalis, read-out: Inhibition Zone Diameter mm (Dose mg/ml) S. Faecalis; for zone of inhibition at 1000 µg/mL: Dose 1.0 mg/ml
Method in brief: as §1

Aerobacter aerogenes = assay: agar plate paper-disc inhibition zone screening; format: cell-based; conditions: Klebsiella aerogenes, read-out: Inhibition Zone Diameter mm (Dose mg/ml) A. Aerogenes; for zone of inhibition at 500 µg/mL: Dose 0.5 mg/ml
Method in brief: as §1

Bacillus subtilis = assay: agar plate paper-disc inhibition zone screening; format: cell-based; conditions: read-out: Inhibition Zone Diameter mm (Dose mg/ml) B. Subtilis; for zone of inhibition at 1000 µg/mL: Dose 1.0 mg/ml
Method in brief: as §1

Penicillium avellaneum = assay: agar plate paper-disc inhibition zone screening; format: cell-based; conditions: Hamigera avellanea, read-out: Inhibition Zone Diameter mm (Dose mg/ml) P. Avellaneum
Method in brief: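 Mycelia and spores from a six-day 28°C agar culture, suspended in saline with 0.05% Tween 80 at 20% transmittancy, were seeded into molten agar trays. Compounds at 3,000, 1,000, 500, 100 and 10 mcg/ml (solvent <10%) were applied on 12.7 mm paper discs. After at least 20-24 h incubation, inhibition zone diameter was measured in mm.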

[1] = system: lymphocytic leukemia P388; assay: in vivo lymphocytic leukemia P388 test; parameters: species or system mice; conditions: Mus musculus, P388, ip, 720 h; for response vs control in vivo at 1.56 mg/kg: P388, Dose 1.56 mg/kg intraperitoneally; for response vs control in vivo at 25 mg/kg: P388, Dose 25 mg/kg intraperitoneally; for response vs control in vivo at 0.78 mg/kg: P388, Dose 0.78 mg/kg intraperitoneally
Method in brief: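 Efficacy was judged from the treated/control survival-time ratio over 30 days (T/C×100 >125% as criterion). Mice (CD2F, 6–7/group) received i.p. P388 ascites cells, then compound i.p. at varied doses twice, four days apart.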

[2] = two single doses four days apart, read-out: T/C × 100 (Percent)
[3] = P388, Dose 3.12 mg/kg intraperitoneally, two single doses four days apart, read-out: T/C × 100 (Percent)
[4] = P388, Dose 6.25 mg/kg intraperitoneally, two single doses four days apart, read-out: T/C × 100 (Percent)
[5] = P388, Dose 50 mg/kg intraperitoneally, two single doses four days apart, read-out: T/C × 100 (Percent)
[6] = P388, Dose 12.5 mg/kg intraperitoneally, two single doses four days apart, read-out: T/C × 100 (Percent)
[7] = P388, Dose 100 mg/kg intraperitoneally, two single doses four days apart, read-out: T/C × 100 (Percent)

Row | SMILES | zone of inhibition at 1000 µg/mL (Escherichia coli) [mm] | zone of inhibition at 3000 µg/mL (Streptococcus faecalis; Dose 3.0 mg/ml) [mm] | zone of inhibition at 3000 µg/mL (Aerobacter aerogenes; Dose 3.0 mg/ml) [mm] | zone of inhibition at 3000 µg/mL (Bacillus subtilis; Dose 3.0 mg/ml) [mm] | zone of inhibition at 3000 µg/mL (Penicillium avellaneum; Dose 3.0 mg/ml) [mm] | response vs control in vivo at 1.56 mg/kg [1, 2] [%] | response vs control in vivo at 3.12 mg/kg [1, 3] [%] | response vs control in vivo at 6.25 mg/kg [1, 4] [%] | response vs control in vivo at 25 mg/kg [1, 2] [%] | zone of inhibition at 500 µg/mL (Aerobacter aerogenes) [mm] | response vs control in vivo at 12.5 mg/kg [1, 6] [%] | further results
1 | O=C1c2c(O)ccc(O)c2-c2nn(CCNCCO)c3ccc(NCCNCCO)c1c23 [Example 54, 7,10-Dihydroxy-2-[2-[12-hydroxyethyl)amino]ethyl]-5-[[2-[(2-hydroxyethyl)amino]ethyl]amino]anthra[1,9-cdlpyrazol-6(2H)-one] | 14 | 0 | 15 | 14 | 0 | 158 | 187 | 206 | 158 | – | – | response vs control in vivo at 50 mg/kg [1, 5]: 139%
2 | NCCNc1ccc2c3c(nn2CCNCCO)-c2c(O)ccc(O)c2C(=O)c13 [Example 55, 5-[(2-Aminoethyl)amino]-7,10-dihydroxy-2-[2-[(2-hydroxyethyl)amino]ethyl]anthra[1,9-cd]pyrazol-6(2H)-one] | 14 | 0 | 15 | 14 | 0 | 173 | – | – | – | – | – | response vs control in vivo at 0.39 mg/kg ([1]; P388, Dose 0.39 mg/kg intraperitoneally, two single doses four days apart, read-out: T/C × 100 (Percent)): 175%; response vs control in vivo at 0.78 mg/kg [1, 2]: 182%
3 | CN(C)CCNc1ccc2c3c(nn2CCNCCO)-c2c(O)ccc(O)c2C(=O)c13 [Example 56, 5-[[2-(Dimethylamino)ethyl]amino]-7,10-dihydroxy-2-[2-[(2-hydroxyethyl)amino]ethyl]anthra[1,9-cd]pyrazol-6(2H)-one] | – | – | – | – | 0 | 161 | 165 | 165 | 88 | 14 | – | zone of inhibition at 500 µg/mL (Escherichia coli): 14 mm; zone of inhibition at 1000 µg/mL (Streptococcus faecalis): 14 mm; zone of inhibition at 1000 µg/mL (Bacillus subtilis): 14 mm; response vs control in vivo at 0.78 mg/kg [1, 2]: 152%
4 | CCN(CC)CCNc1ccc2c3c(nn2CCNCCO)-c2c(O)ccc(O)c2C(=O)c13 [Example 57, 5-[[2-(Diethylamino)ethyl]amino]-7,10-dihydroxy-2-[2-[(2-hydroxyethyl)amino]ethyl]anthra[1,9-cd]pyrazol-6(2H)-one] | – | – | – | – | 14 | 131 | 148 | 154 | 190 | 14 | 177 | zone of inhibition at 500 µg/mL (Escherichia coli): 14 mm; zone of inhibition at 1000 µg/mL (Streptococcus faecalis): 14 mm; zone of inhibition at 500 µg/mL (Bacillus subtilis; Dose 0.5 mg/ml): 15 mm; response vs control in vivo at 50 mg/kg [1, 5]: 241%
5 | NCCCNc1ccc2c3c(nn2CCNCCO)-c2c(O)ccc(O)c2C(=O)c13 [Example 58, 5-[(3-Aminopropyl)amino]-7,10-dihydroxy-2-[2-[(2-hydroxyethyl)amino]ethyl]anthra[1,9-cd]pyrazol-6(2H)-one] | – | – | – | – | – | – | – | – | – | – | – | zone of inhibition at 3000 µg/mL (Escherichia coli): 15 mm; zone of inhibition at 3000 µg/mL (Streptococcus faecalis): 0 mm; zone of inhibition at 3000 µg/mL (Aerobacter aerogenes): 14 mm; zone of inhibition at 3000 µg/mL (Bacillus subtilis): 0 mm; zone of inhibition at 3000 µg/mL (Penicillium avellaneum): 0 mm; response vs control in vivo at 3.12 mg/kg ([1]; read-out: T/C × 100 (Percent), P388, Dose 3.12 mg/kg intraperitoneally, two single doses four days apart): 165%; response vs control in vivo at 6.25 mg/kg ([1]; read-out: T/C × 100 (Percent), P388, Dose 6.25 mg/kg intraperitoneally, two single doses four days apart): 165%; response vs control in vivo at 12.5 mg/kg ([1]; read-out: T/C × 100 (Percent), P388, Dose 12.5 mg/kg intraperitoneally, two single doses four days apart): 177%; response vs control in vivo at 50 mg/kg ([1]; read-out: T/C × 100 (Percent), P388, Dose 50 mg/kg intraperitoneally, two single doses four days apart): 254%; response vs control in vivo at 100 mg/kg ([1]; read-out: T/C × 100 (Percent), P388, Dose 100 mg/kg intraperitoneally, two single doses four days apart): 131%
6 | NCCCCNc1ccc2c3c(nn2CCNCCO)-c2c(O)ccc(O)c2C(=O)c13 [Example 59, 5-[(4-Aminobutyl)amino]-7,10-dihydroxy-2-[2-[(2-hydroxyethyl)amino]ethyl]anthra[1,9-cd]pyrazol-6(2H)-one] | – | 0 | 16 | 0 | 0 | – | 130 | 131 | 150 | – | 139 | zone of inhibition at 3000 µg/mL (Escherichia coli; Dose 3.0 mg/ml): 15 mm; response vs control in vivo at 100 mg/kg [1, 7]: 172%
7 | NCCCCCNc1ccc2c3c(nn2CCNCCO)-c2c(O)ccc(O)c2C(=O)c13 [Example 60, 5-[(5-Aminopentyl)amino]-7,10-dihydroxy-2-[2-[(2-hydroxyethyl)amino]ethyl]anthra[1,9-cd]pyrazol-6(2H)-one] | – | 0 | 0 | 0 | 0 | – | – | – | 127 | – | 127 | zone of inhibition at 3000 µg/mL (Escherichia coli; Dose 3.0 mg/ml): 14 mm; response vs control in vivo at 50 mg/kg [1, 5]: 127%; response vs control in vivo at 100 mg/kg [1, 7]: 150%
8 | O=C1c2c(O)ccc(O)c2-c2nn(CCNCCO)c3ccc(NCCCNCCO)c1c23 [Example 62, 7,10-Dihydroxy-2-[2-[(2-hydroxyethyl)amino]ethyl]-5-[[3-[(2-hydroxyethyt)amino]propyl]amino]anthra[1,9-cd] pyrazol-6(2H)-one] | – | 14 | – | – | 0 | – | 173 | – | – | 14 | – | zone of inhibition at 500 µg/mL (Escherichia coli): 14 mm; zone of inhibition at 1000 µg/mL (Bacillus subtilis): 16 mm
9 | CN(C)CCNCCNc1ccc2c3c(nn2CCNCCO)-c2c(O)ccc(O)c2C(=O)c13 [Example 63] | 15 | 16 | – | 18 | 0 | – | 152 | 169 | – | – | – | zone of inhibition at 1000 µg/mL (Aerobacter aerogenes; Dose 1.0 mg/ml): 14 mm
10 | CN1CCN(c2ccc3c4c(nn3CCNCCO)-c3c(O)ccc(O)c3C(=O)c24)CC1 [Example 64, 7,10-Dihydroxy-2-[2-[(2-hydroxyethyl)amino]ethyl]-5-(4-methyl-1-piperazinyl)anthra[1,9-cd]pyrazol-6(2H)-one] | 14 | 0 | – | 0 | 0 | – | – | 163 | 150 | 17 | 169 | –
11 | CN(C)CCN(C)c1ccc2c3c(nn2CCNCCO)-c2c(O)ccc(O)c2C(=O)c13 [Example 65, 5-([2-(Dimethylamino)ethyl]methylamino]-7,10-dihydroxy-2-[2-[(2-hydroxyethyl)amino]ethyl]anthra[1,9-cd]pyrazol-6(2H)-one] | – | 0 | – | 0 | 0 | – | – | 179 | – | 16 | 188 | zone of inhibition at 3000 µg/mL (Escherichia coli; Dose 3.0 mg/ml): 15 mm
